{"source": "patent US9393204B2", "about": "“Methods and compositions employing bicifadine for treating disability or functional impairment associated with acute pain, chronic pain, or neuropathic disorders” (EBI Life Sciences, Inc., priority 2002, dated 2016)", "key": {"neuropathic pain": {"tested_on": "neuropathic pain", "assay": "Spinal nerve ligation (Chung) model", "details": "in vivo"}, "[1]": {"assay": "Pharmacokinetics of bicifadine SR tablets in acute dental pain study", "format": "in vivo, human", "details": "90 patients", "protocol": "(§1) Healthy adult male and female human subjects who underwent surgical extraction of two or more impacted third molars were enrolled in the study. Following cessation of the local anesthetic effect and onset of pain of at least 40 mm intensity on the 100 mm VAS, patients were randomized to into 1 of the 5 treatment arms (n˜108 per arm) and remained in the clinic for the subsequent 12 hours of the study. The study subjects were randomized to receive either a single dose of: 200 mg, 400 mg or 600 mg bicifadine SR tablets, Tramadol 100 mg, or Placebo. Analgesia ratings were obtained over a 12 h post-dosing period. Rescue medication (acetaminophen) was available, but no analgesia measures were taken after the use of rescue medication by a given patient. A subset of 150 patients provided blood samples at 0.5 hr and hourly intervals following dosing with study medication for the purpose of determining bicifadine levels (n=90).\nPlasma time course profiles were determined in a subset of 30 subjects (15 male/15 female) from each treatment group."}, "acute inflammatory pain": {"tested_on": "acute inflammatory pain", "details": "animal model of acute inflammatory pain; cited from earlier work"}, "acute pain": {"tested_on": "acute pain", "assay": "Acute pain studies (acute dental pain and bunionectomy pain)", "format": "in vivo, human", "details": "unit doses of about 200 mg, 400 mg or 600 mg"}, "[2]": {"tested_on": "chronic low back pain (CLBP)", "assay": "Chronic low back pain (CLBP) study, bi-daily dosing", "format": "in vivo, human", "protocol": "The present study evaluated the therapeutic efficacy of a reduced dosing regimen employing bicifadine in a bi-daily (BID) dosing protocol to treat chronic low back pain (CLBP). More than 800 study subjects were recruited in this study, and a subset of these subjects was administered 400 mg of a sustained release oral dosage form (formula M; example 15) of bicifadine BID to evaluate the long-term analgesic efficacy of bicifadine for treating CLBP. […] The following outcome measures were assessed in the study:\nInclusion criteria for study subjects, as selected for other studies herein, included the following: Subjects were at least 18 years of age. If subject was female and of childbearing potential, the subject had to have a negative serum pregnancy test during the screening period. Subjects were required to have […] during the screening period.\nOther exclusionary criteria in this study included: Low back pain due to acute fracture, infection, severe osteoporosis, malignancy, marked scoliosis, or severe congenital malformation such as spina bifida; Receipt of an epidural injection of corticosteroid in the lower back within 1 month prior to the baseline visit; Use of any antidepressant for pain or sleep (including SSRIs or SNRIs), anti-epileptic, or muscle relaxant, or receipt of transcutaneous electrical nerve stimulation, chiropractic adjustment, or acupuncture within 3 weeks prior to the baseline visit; Use of any antidepressant (including SSRIs or SNRIs) for depression within 3 months prior to the baseline visit; Use of any opioid analgesic or benzodiazepine (or other sedative-hypnotic) within 2 weeks prior to the baseline visit; Use of any NSAID (except aspirin<81 mg per day or <325 mg every other day for cardiac prophylaxis and except ibuprofen) or any non-opioid analgesic (except acetaminophen) within 1 week, or acetaminophen or ibuprofen within 60 hours, prior to the baseline visit; Active malignancy of any type or history of a malignancy within 5 years prior to the first dose of study medication (patients with treated localized basal or squamous cell carcinoma of the skin within 5 years are permitted); Active GI disease (including any GI surgery that, in the Investigator's opinion, would interfere with the absorption of the study medication), or a chronic or acute renal or hepatic disorder; Mental instability, known substance abuse, history of clinically significant depression or alcoholism, or incapacity of being compliant with the requirements of the study; Any clinically significant cardiovascular, renal, endocrine, hepatic, immunologic, respiratory, neurologic, gastrointestinal, psychiatric, or hematologic disease, or any underlying serious medical condition that would preclude patient's participation in the study; and, other standard, relevant exclusion criteria.\nPatients who qualified for enrollment into the study completed the PSR test, Roland-Morris Disability Questionnaire, Short Form McGill Pain Questionnaire (SF-MPQ) and the SF-36 quality of life survey at the baseline visit and at various time points throughout the study.\nStudy subjects were randomized on a 25:6 basis to receive either bicifadine 400 mg BID or SOC treatment, respectively. SOC treatment was provided as any appropriate pharmacological analgesic treatment selected by the investigator based on the subjects' baseline and ongoing presentation. Subjects were permitted to reduce the dose for tolerability reasons, first to bicifadine 300 mg BID, and then, if necessary, to bicifadine 200 mg BID.\nSummary statistics, including observed means and standard deviations along with mean change from baseline were summarized by visit for each outcome measure. Incidence of discontinuation due to lack of efficacy and its 95% confidence interval were likewise calculated. The median and its 95% confidence interval and a Kaplan-Meier plot were provided for Time to Discontinuation due to lack of efficacy and other reasons. […]"}, "[3]": {"tested_on": "post-operative dental pain", "assay": "Analgesic efficacy of bicifadine SR tablets in post-operative dental pain study", "format": "in vivo, human", "protocol": "These conclusions are further substantiated by the use of rescue medication by subjects in the Stem et al. acute dental pain studies. Table 5 below summarizes information on the use of rescue medication for patients who took rescue medication among the various treatment groups in the clinical trial reported by Stern et al. (id.) A nonparametric analysis (Median Test) was conducted to evaluate the median latency to rescue medication.\nSurvival analysis (Kaplan-Meier method, 95% confidence) was performed to compare the treatment groups with regard to time-to-rescue medication. […] The analysis yielded a statistically significant difference among the treatment groups (Log-Rank test, Chi-square=26.9, df=4, P=0.0001).\nas §1\nThe main efficacy endpoints utilized in the overall study (n˜540) were the individual assessment of Pain Severity and Pain Relief scores at a given time point; the derived scores (PID, PRID, SPID, SPRID, TOTPAR), and the global improvement. The last observation carried forward (LOCF) approach was used to estimate change over time for those patients who used rescue medication. For the full study efficacy evaluations, one-way analysis of covariance with baseline pain severity as a covariate was applied. The global tests which included all treatment arms were followed by post-hoc comparisons of the individual treatment arms vs. placebo.\nThe relationship between mean pain relief ratings (PRR) and mean plasma bicifadine levels was determined at three exemplary plasma level ranges: between 0-500 ng/ml, 500-1000 ng/ml, and >1000 ng/ml, respectively. A clear positive relationship was observed across 3 ranges of bicifadine levels. In particular, bicifadine plasma concentrations in the >1000 ng/ml range were associated with a PR score approximately 3 times as high as plasma concentrations in the 0-500 ng/ml range (p<0.001, Hierarchical Linear Model analysis).\nThe probability of treatment response as a function of bicifadine blood concentration levels was also determined. Association between the probability of treatment response and bicifadine blood concentration levels was investigated with the widely known Generalized Estimating Equation (GEE) approach. For the purpose of the GEE analyses described here, bicifadine blood concentration was treated as a continuous independent (predictor) variable. Treatment (analgesic) response served as a dichotomous (yes, no) dependent variable in the GEE model. In particular, treatment response for each individual patient for each of the time points was defined as a Pain Relief Rating of 3 or more (range 0-4)."}, "[4]": {"tested_on": "acute, nociceptive pain following dental surgery", "details": "cited from earlier work"}, "[5]": {"details": "patients with low back pain and radiating pain"}}, "note": "Entries after “also recorded” stand apart in the source; their conditions may differ. Structures can show the parent of a compound that is named as a salt.", "data": [{"compound": "Cc1ccc(C23CNCC2C3)cc1", "note": "(racemic) [Bicifadine HCl, (±)-1-(4-methylphenyl)-3-azabicyclo[3.1.0]hexane hydrochloride]", "values": [{"measurement": "efficacy in the spinal nerve ligation (Chung) model", "setting": "neuropathic pain", "result": "effective"}, {"measurement": "relationship between bicifadine dose and AUC", "setting": "[1]", "result": "clear dose proportional relationship"}, {"measurement": "activity in the Randall-Selitto test", "setting": "acute inflammatory pain", "result": "potent and active"}, {"measurement": "period of analgesic efficacy for effectively treating acute pain", "setting": "acute pain", "result": "up to 6 hours"}, {"measurement": "therapeutic efficacy from pain relief data (VAS)", "setting": "[2]; BID dosing, 4.5 month period, versus SOC", "result": "comparable to that of standard of care (SOC) treatment"}, {"measurement": "improved functional/activity results", "setting": "[2]; BID dosing, versus SOC", "result": "comparable to those observed among SOC-treated subjects"}, {"measurement": "VAS pain scores compared to placebo", "setting": "[2]; baseline RDQ score greater than 17", "result": "significantly reduced"}, {"measurement": "subjects with at least a 50% reduction in VAS scores, relative to placebo", "setting": "[2]; baseline RDQ score greater than 17, hydrochloride", "result": "at least three times as many; also recorded: roughly three times the percentage"}, {"measurement": "percentage of subjects with 50% or greater reduction in RDQ scores, relative to placebo (less than 15%)", "setting": "[2]; baseline RDQ>17, 400-800 mg/day", "result": "roughly twice this percentage"}, {"measurement": "disability scores on the RDQ versus placebo", "setting": "[2]; baseline RDQ>17, 400-800 mg/day, hydrochloride", "result": "significant activity for reversing disabilities and enhancing functional/activity performance; also recorded: significantly decreased"}, {"measurement": "improvement in VAS pain score compared to placebo", "setting": "[2]; [5]", "result": 11, "unit": "mm"}, {"measurement": "responsiveness to treatment versus patients with only localized back pain", "setting": "[2]; [5]", "result": "two times more responsive"}, {"measurement": "SPRID-6 and other derived analgesia scores versus placebo", "setting": "[3]; 200 mg single dose", "result": "better than placebo on some measures"}, {"measurement": "SPRID-6 and other derived analgesia scores versus placebo", "setting": "[3]; 400 mg single dose", "result": "statistically superior to placebo"}, {"measurement": "SPRID-6 and other derived analgesia scores versus placebo", "setting": "[3]; 600 mg single dose", "result": "statistically superior to placebo"}, {"measurement": "drug levels associated with significant analgesic efficacy", "setting": "[3]; acute dental pain", "result": "500 to 1000", "unit": "ng/mL"}, {"measurement": "minimally effective dose", "setting": "[3]; acute dental pain", "result": 200, "unit": "mg"}, {"measurement": "plasma bicifadine levels associated with the greatest pain relief", "setting": "[3]; acute dental pain", "result": "> 1000", "unit": "ng/mL"}, {"measurement": "plasma drug levels not associated with significant analgesic effects", "setting": "[3]; acute dental pain", "result": "≤ 500", "unit": "ng/mL"}, {"measurement": "Odds Ratio of Response (Pain Relief Rating of 3 or more)", "setting": "[3]; for an increase of 500 ng/ml in bicifadine blood levels, GEE, p=0.006", "result": 1.59}, {"measurement": "PR score at plasma concentrations >1000 ng/ml relative to 0-500 ng/ml range", "setting": "[3]; p<0.001, Hierarchical Linear Model", "result": "approximately 3 times"}, {"measurement": "efficacy relative to codeine and tramadol", "setting": "[4]", "result": "as effective as codeine and tramadol"}]}, {"compound": "COc1cccc(C2(O)CCCCC2CN(C)C)c1", "note": "(centres unmarked) [tramadol, reference compound]", "values": [{"measurement": "use of rescue medication versus placebo (time-to-rescue, Log-Rank)", "setting": "[3]; 100 mg, P=0.0001", "result": "significantly less likely to use rescue medication"}]}]}
